The experiment concerns GABA-A receptor. In words: 35S-TBPS binding assay on rat cerebral cortex cell membrane. The arrangement: species or system Sprague-Dawley rat. Particulars: 2 nM 35S-TBPS, GABA added, read-out: 35S-TBPS bindng test, IC50 on inhibiting the TBPS binding activity. As for the experimental part: 1.2.1 Extraction of Cerebral Cortex Cell Membrane:
1. The cerebral cortex of male Sprague-Dawley rat was isolated.
2. A pre-chilled 0.32 M sucrose solution (one tablet of protease inhibitor was added per 100 ml) was added to the cerebral cortex (the volume of sucrose solution was 10 times the volume of the cerebral cortex). The mixture was crushed with a 50 ml glass tissue homogenizer in batches and mixed well.
3. The mixture was centrifuged at 1500 g, 4° C. for 10 minutes, and the supernatant was collected.
4. The mixture was centrifuged at 20000 g, 4° C. for 30 minutes, and the supernatant was discarded.
5. The precipitate was resuspended with the pre-chilled phosphate buffer saline (PBS) (one tablet of protease inhibitor was added per 100 ml). An average of 4 ml of PBS was added per rat, and the mixture was mixed well with a glass tissue homogenizer.
6. The mixture was centrifuged at 10000 g, 4° C. for 10 minutes, and the supernatant was discarded.
7. Steps 5 and 6 were repeated three times.
8. Finally, the precipitate was resuspended with 4 volumes of PBS. The resulting solution was dispensed, frozen in liquid nitrogen, and stored at −80° C.
9. The protein concentration was measured by the bicinchoninic acid (BCA) method.
1.2.2 ^35S-TBPS Binding Assay
1. 230 μL of PBS was added to each well of a well plate with 1.1 ml volume.
2. 60 μL of the cerebral cortex cell membrane (5 μg/μL) solution was added to each well, and the mixture was mixed well.
3. The test compound (3 μL per well) was added, and the plate was incubated at 25° C. for 5 minutes. The DMSO concentration was 1%. The initial compound concentration was 1 NM, and a 3-fold dilution in gradient was carried out to obtain a total of 8 gradients and 2 replicates. 1% DMSO was used as a negative control, and 10 μM P026-2 was used as a positive control.
4. GABA was added at a final concentration of […], and incubated at 25° C. for 5 minutes. 1 mM GABA solution was formulated, and 1.5 μL of the solution was added to each well.
5. ^35S-TBPS was added at a final concentration of 2 nM. The concentration of isotope mother solution was 9.7 μM. After dilution with PBS for 100 times, 6 μL of the diluted isotope solution was added to each well.
6. The plate was incubated at 4° C. for 20 hours.
7. The FilterMate GF/C plate was pre-treated with 0.5% PEI, and incubated at 4° C. for 1 hour.
8. The FilterMate GF/C plate was washed with Universal Harvester twice, 50 ml PBS each time.
9. The reaction solution was transferred to the GF/C plate, and each well was washed 4 times with 900 μL PBS.
10. The washed GF/C plate was placed at 55° C. and dried for 10 minutes.
11. 40 μL of scintillation solution was added to each well, and the CPM value was read with TopCount.
1.2.3 Experimental Data Processing Method:
In the experiment, the CPM (counts per minute) value was read with TopCount. According to the readings of the High control (DMSO) and the Low control (10 μM of the positive compound) experimental groups, the % inhibition was calculated based on the following formula: % Inhibition=100×(CPMHigh control−CPMSample)/(CPMHigh control−CPMLow control)
The IC50 of the compound was calculated according to the following 4-parameter nonlinear logic formula: Y=Bottom+(Top−Bottom)/(1+10^((Log IC50−X)*Hill Slope)),
The effect of the compound of the present invention on the TBPS binding activity was determined by the above test, and the measured IC50 values are shown in Table 1.

This note sets out measurements from patent publication US11661437B2, “Steroid derivative regulators, method for preparing the same, and uses thereof” (priority 2018, dated 2023).

A word on the IC50: it is the concentration needed to halve the response being measured.

Regarding `C[C@@]1(O)CC[C@@]2(F)[C@H](CC[C@H]3[C@@H]4CC[C@H](C(=O)CNc5cnoc5)[C@@]4(C)CC[C@@H]32)C1` [Example 45, 1-((3R,5R,8S,9S,10R,13S,14S,17S)-10-Fluoro-3-hydroxy-3,13-dimethylhexadecahydro-1H-cyclopenta[a]phenanthren-17-yl)-2-(isoxazol-4-ylamino)ethan-1-one], the IC50 was found to be 34.4 nM. The figure for `C[C@@]1(O)CC[C@@]2(F)[C@H](CC[C@H]3[C@@H]4CC[C@H](C(=O)Cn5cc([N+](=O)[O-])cn5)[C@@]4(C)CC[C@@H]32)C1` [Example 58, 1-((3R,5R,8S,9S,10R,13S,14S,17S)-10-Fluoro-3-hydroxy-3,13-dimethylhexadecahydro-1H-cyclopenta[a]phenanthren-17-yl)-2-(4-nitro-1H-pyrazol-1-yl)ethan-1-one] is 37.8 nM. In the case of `C[C@@]1(O)CC[C@@]2(F)[C@H](CC[C@H]3[C@@H]4CC[C@H](C(=O)COc5ccc(C#N)cc5)[C@@]4(C)CC[C@@H]32)C1` [Example 33, 4-(2-((3R,5R,8S,9S,10R,13S,14S,17S)-10-Fluoro-3-hydroxy-3,13-dimethylhexadecahydro-1H-cyclopenta[a]phenanthren-17-yl)-2-oxoethoxy)benzonitrile] it was 13.8 nM. On to `C[C@@]1(O)CC[C@@]2(F)[C@H](CC[C@H]3[C@@H]4CC[C@H](C(=O)Cn5cc6ccncc6n5)[C@@]4(C)CC[C@@H]32)C1` [Example 16, 1-((3R,5R,8S,9S,10R,13S,14S,17S)-10-Fluoro-3-hydroxy-3,13-dimethylhexadecahydro-1H-cyclopenta[a]phenanthren-17-yl)-2-(2H-pyrazolo[3,4-c]pyridin-2-yl)ethan-1-one], for which the IC50 came out at 40 nM. On to `C[C@@]1(O)CC[C@@]2(F)[C@H](CC[C@H]3[C@@H]4CC[C@H](C(=O)COc5cc(C#N)ccc5F)[C@@]4(C)CC[C@@H]32)C1` [Example 34, 4-Fluoro-3-(2-((3R,5R,8S,9S,10R,13S,14S,17S)-10-fluoro-3-hydroxy-3,13-dimethylhexadecahydro-1H-cyclopenta[a]phenanthren-17-yl)-2-oxoethoxy)benzonitrile], for which the IC50 came out at 9.3 nM. In the case of `C[C@@]1(O)CC[C@@]2(F)[C@H](CC[C@H]3[C@@H]4CC[C@H](C(=O)Cn5nccn5)[C@@]4(C)CC[C@@H]32)C1` [Example 10, 1-((3R,5R,8S,9S,10R,13S,14S,17S)-10-Fluoro-3-hydroxy-3,13-dimethylhexadecahydro-1H-cyclopenta[a]phenanthren-17-yl)-2-(2H-1,2,3-triazol-2-yl)ethan-1-one] it was 5.3 nM; in that of `C[C@]1(O)CC[C@@]2(F)[C@H](CC[C@H]3[C@@H]4CC[C@H](C(=O)CNS(=O)(=O)c5ccccc5)[C@@]4(C)CC[C@@H]32)C1` [Example 71, N-(2-((3S,5R,8S,9S,10R,13S,14S,17S)-10-Fluoro-3-hydroxy-3,13-dimethylhexadecahydro-1H-cyclopenta[a]phenanthren-17-yl)-2-oxoethyl)benzenesulfonamide], 49 nM.

Turning to `COc1ccc2nnn(CC(=O)[C@H]3CC[C@H]4[C@@H]5CC[C@@H]6C[C@](C)(O)CC[C@]6(F)[C@H]5CC[C@]34C)c2c1` [Example 47, 1-((3R,5R,8S,9S,10R,13S,14S,17S)-10-Fluoro-3-hydroxy-3,13-dimethylhexadecahydro-1H-cyclopenta[a]phenanthren-17-yl)-2-(6-methoxy-1H-benzo[d][1,2,3]triazol-1-yl)ethan-1-one], the IC50 is 7.3 nM. Take `C[C@@]1(O)CC[C@@]2(F)[C@H](CC[C@H]3[C@@H]4CC[C@H](C(=O)Cn5nnc6ccc(F)cc65)[C@@]4(C)CC[C@@H]32)C1` [Example 19, 2-(6-Fluoro-1H-benzo[d][1,2,3]triazol-1-yl)-1-((3R,5R,8S,9S,10R,13S,14S,17S)-10-fluoro-3-hydroxy-3,13-dimethylhexadecahydro-1H-cyclopenta[a]phenanthren-17-yl)ethan-1-one]: the IC50 came to 15.2 nM.

For the compound `C[C@@]1(O)CC[C@@]2(F)[C@H](CC[C@H]3[C@@H]4CC[C@H](C(=O)COc5ccc(F)cc5F)[C@@]4(C)CC[C@@H]32)C1` [Example 36, 2-(2,4-Difluorophenoxy)-1-((3R,5R,8S,9S,10R,13S,14S,17S)-10-fluoro-3-hydroxy-3,13-dimethylhexadecahydro-1H-cyclopenta[a]phenanthren-17-yl)ethan-1-one], the IC50 came out at 13.7 nM. In the case of `C[C@@]1(O)CC[C@@]2(F)[C@H](CC[C@H]3[C@@H]4CC[C@H](C(=O)Cn5cc(C(=O)N6CCC6)cn5)[C@@]4(C)CC[C@@H]32)C1` [Example 62, 2-(4-(Azetidine-1-carbonyl)-1H-pyrazol-1-yl)-1-((3R,5R,8S,9S,10R,13S,14S,17S)-10-fluoro-3-hydroxy-3,13-dimethylhexadecahydro-1H-cyclopenta[a]phenanthren-17-yl)ethan-1-one] it was 7.1 nM. Regarding `C[C@@]1(O)CC[C@@]2(F)[C@H](CC[C@H]3[C@@H]4CC[C@H](C(=O)Cn5nc6ccccc6n5)[C@@]4(C)CC[C@@H]32)C1` [Example 14, 2-(2H-Benzo[d][1,2,3]triazol-2-yl)-1-((3R,5R,8S,9S,10R,13S,14S,17S)-10-fluoro-3-hydroxy-3,13-dimethylhexadecahydro-1H-cyclopenta[a]phenanthren-17-yl)ethan-1-one], the IC50 was found to be 10.4 nM.

With `C[C@@]1(O)CC[C@@]2(F)[C@H](CC[C@H]3[C@@H]4CC[C@H](C(=O)CNc5cccc(F)c5)[C@@]4(C)CC[C@@H]32)C1` [Example 25, 1-((3R,5R,8S,9S,10R,13S,14S,17S)-10-Fluoro-3-hydroxy-3,13-dimethylhexadecahydro-1H-cyclopenta[a]phenanthren-17-yl)-2-((3-fluorophenyl)amino)ethan-1-one], the IC50 is 6.7 nM. As for `C[C@@]1(O)CC[C@@]2(F)[C@H](CC[C@H]3[C@@H]4CC[C@H](C(=O)CNc5ccc(F)cc5C#N)[C@@]4(C)CC[C@@H]32)C1` [Example 27, 5-Fluoro-2-((2-((3R,5R,8S,9S,10R,13S,14S,17S)-10-fluoro-3-hydroxy-3,13-dimethylhexadecahydro-1H-cyclopenta[a]phenanthren-17-yl)-2-oxoethyl)amino)benzonitrile], the IC50 came out at 7.5 nM. For `C[C@@]1(O)CC[C@@]2(F)[C@H](CC[C@H]3[C@@H]4CC[C@H](C(=O)COc5ccc(C#N)c(F)c5)[C@@]4(C)CC[C@@H]32)C1` [Example 35, 2-Fluoro-4-(2-((3R,5R,8S,9S,10R,13S,14S,17S)-10-fluoro-3-hydroxy-3,13-dimethylhexadecahydro-1H-cyclopenta[a]phenanthren-17-yl)-2-oxoethoxy)benzonitrile], the IC50 worked out at 15.1 nM.
